ChEMBL document CHEMBL1687927, “Design and optimization of potent and orally bioavailable tetrahydronaphthalene Raf inhibitors” (J Med Chem, 2011)
Calls of active or inactive are those of the source. The rule behind the calls is not given here.

What was measured:
[1] = biological target: T1, Serine/threonine-protein kinase B-raf (Homo sapiens, UniProt P15056, V600E); assay: Inhibition of raf kinase in human A375 cells assessed as decrease in MEK-mediated ERK phosphorylation after 3 hrs using 3,3',5,5'-tetramethylbenzidine liquid substrate system; type: cell-based; conditions: a-375
T1 sequence (P15056 2-766 V600E limits assumed): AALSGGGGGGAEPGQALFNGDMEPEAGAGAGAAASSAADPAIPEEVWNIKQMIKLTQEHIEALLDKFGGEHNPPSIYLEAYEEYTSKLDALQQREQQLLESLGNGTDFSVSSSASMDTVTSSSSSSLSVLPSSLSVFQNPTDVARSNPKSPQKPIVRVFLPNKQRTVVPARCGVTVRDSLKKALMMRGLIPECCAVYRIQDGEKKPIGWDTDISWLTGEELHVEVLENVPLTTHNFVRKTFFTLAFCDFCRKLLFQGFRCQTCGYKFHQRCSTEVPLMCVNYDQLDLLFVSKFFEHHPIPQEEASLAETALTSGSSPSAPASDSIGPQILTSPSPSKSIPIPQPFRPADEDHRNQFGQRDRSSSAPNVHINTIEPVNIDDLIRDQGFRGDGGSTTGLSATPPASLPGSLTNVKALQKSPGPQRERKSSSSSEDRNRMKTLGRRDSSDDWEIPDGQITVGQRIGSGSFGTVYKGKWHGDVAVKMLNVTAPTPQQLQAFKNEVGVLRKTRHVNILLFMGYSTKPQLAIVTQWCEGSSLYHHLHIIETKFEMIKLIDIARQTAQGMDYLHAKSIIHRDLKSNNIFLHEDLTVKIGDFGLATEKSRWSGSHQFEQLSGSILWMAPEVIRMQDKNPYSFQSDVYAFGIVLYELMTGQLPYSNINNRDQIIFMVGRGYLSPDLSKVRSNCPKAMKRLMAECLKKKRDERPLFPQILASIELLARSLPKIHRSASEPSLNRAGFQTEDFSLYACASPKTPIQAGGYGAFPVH

[2] = biological target: RAF proto-oncogene serine/threonine-protein kinase (Homo sapiens, UniProt P04049); assay: Inhibition of C-Raf assessed as reduction in [33P]ATP incorporation into biotinylated substrate peptide after 3 hrs by flash plate assay
RAF proto-oncogene serine/threonine-protein kinase, sequence (P04049 whole entry): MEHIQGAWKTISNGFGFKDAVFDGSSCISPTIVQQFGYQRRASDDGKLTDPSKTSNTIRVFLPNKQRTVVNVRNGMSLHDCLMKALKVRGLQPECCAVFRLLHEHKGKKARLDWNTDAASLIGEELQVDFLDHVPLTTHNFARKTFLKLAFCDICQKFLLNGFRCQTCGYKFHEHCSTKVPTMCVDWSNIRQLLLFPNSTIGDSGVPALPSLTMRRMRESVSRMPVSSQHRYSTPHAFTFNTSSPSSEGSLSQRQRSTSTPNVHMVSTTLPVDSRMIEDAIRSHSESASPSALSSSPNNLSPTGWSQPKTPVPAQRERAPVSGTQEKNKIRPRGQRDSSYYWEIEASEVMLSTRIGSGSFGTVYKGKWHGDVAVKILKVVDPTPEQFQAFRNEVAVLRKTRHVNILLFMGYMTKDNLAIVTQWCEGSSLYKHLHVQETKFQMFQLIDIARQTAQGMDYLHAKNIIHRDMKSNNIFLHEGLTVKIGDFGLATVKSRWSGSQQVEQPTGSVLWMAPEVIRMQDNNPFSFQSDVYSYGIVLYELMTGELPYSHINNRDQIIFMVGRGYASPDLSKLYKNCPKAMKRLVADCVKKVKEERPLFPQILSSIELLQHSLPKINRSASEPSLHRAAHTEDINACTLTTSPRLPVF

[3] = biological target: T1, Serine/threonine-protein kinase B-raf
[4] = Oral bioavailability in mouse at 10 mg; type: ADME, organism-based; conditions: in vivo
[5] = AUC (0 to 24 hrs) in mouse at 10 mg, po in 20% HPbCD vehicle; type: ADME, organism-based; parameters: dose 10 mg, time < 24 hr, route oral; conditions: plasma
Mus musculus [6] = assay: Volume of distribution at steady state in mouse at 1 mg/kg, iv or 10 mg, po; type: ADME, organism-based; parameters: dose 1 mg/kg, route oral; conditions: in vivo
[7] = Plasma clearance in mouse at 10 mg, po in 20% HPbCD vehicle; type: ADME, organism-based
Mus musculus [8] = assay: Plasma clearance in mouse at 1 mg/kg, iv and 10 mg, po in 10% HPbCD vehicle; type: ADME, organism-based; parameters: dose 1 mg/kg, route oral; conditions: in vivo
[9] = AUC (0 to 24 hrs) in mouse at 10 mg, po in 10% HPbCD vehicle; type: ADME, organism-based; parameters: time < 24 hr, dose 10 mg, route oral; conditions: plasma
[10] = Inhibition of MEK
Homo sapiens [11] = assay: Antitumor activity against human A375M cells xenografted mouse model assessed as partial tumor regression at 75 mg/kg, po qd for 21 days; type: functional, organism-based; parameters: dose 75 mg/kg
[12] = Plasma concentration in mouse xenografted with human A375M cells at 75 mg/kg, po administered as single dose in 10% HPbCD measured 4 hrs post dose by LC/MS/MS; type: ADME, organism-based; parameters: dose 75 mg/kg, route oral
[13] = Inhibition of PDGFR
Mus musculus [14] = assay: Inhibition of ERK phosphorylation in human A375M cells xenografted in mouse at 75 mg/kg, po administered as single dose in 10% HPbCD measured 4 hrs post dose by Li-Cor quantitative Western blot analysis relative to control; type: functional
Mus musculus [15] = assay: Inhibition of ERK phosphorylation in human A375M cells xenografted in mouse at 75 mg/kg, po administered as single dose in 10% HPbCD measured 24 hrs post dose by Li-Cor quantitative Western blot analysis relative to control; type: functional
[16] = Plasma concentration in mouse xenografted with human A375M cells at 75 mg/kg, po administered as single dose in 10% HPbCD measured 8 hrs post dose by LC/MS/MS; type: ADME, organism-based; parameters: dose 75 mg/kg, route oral
[17] = Plasma concentration in mouse xenografted with human A375M cells at 75 mg/kg, po administered as single dose in 10% HPbCD measured 24 hrs post dose by LC/MS/MS; type: ADME, organism-based; parameters: dose 75 mg/kg, route oral
Mus musculus [18] = assay: Inhibition of ERK phosphorylation in human A375M cells xenografted in mouse at 75 mg/kg, po administered as single dose in 10% HPbCD measured 8 hrs post dose by Li-Cor quantitative Western blot analysis relative to control; type: functional
[19] = Plasma concentration in mouse xenografted with human A375M cells at 100 mg/kg, po administered as single dose in 10% HPbCD measured 4 hrs post dose by LC/MS/MS; type: ADME, organism-based; parameters: dose 100 mg/kg, route oral
[20] = Plasma concentration in mouse xenografted with human A375M cells at 100 mg/kg, po administered as single dose in 10% HPbCD measured 24 hrs post dose by LC/MS/MS; type: ADME, organism-based; parameters: dose 100 mg/kg, route oral
Homo sapiens [21] = assay: Antitumor activity against human A375M cells xenografted mouse model assessed as partial tumor regression at 100 mg/kg, po qd for 21 days; type: functional, organism-based; parameters: dose 100 mg/kg
Mus musculus [22] = assay: Inhibition of ERK phosphorylation in human A375M cells xenografted in mouse at 100 mg/kg, po administered as single dose in 10% HPbCD measured 24 hrs post dose by Li-Cor quantitative Western blot analysis relative to control; type: functional
Mus musculus [23] = assay: Inhibition of ERK phosphorylation in human A375M cells xenografted in mouse at 100 mg/kg, po administered as single dose in 10% HPbCD measured 4 hrs post dose by Li-Cor quantitative Western blot analysis relative to control; type: functional
Plasma = assay: Plasma concentration in mouse assessed as (R)-3-((methyl amino)methyl)-N-(7-(7-oxo-5,6,7,8-tetrahydro-1,8-naphthyridin-4-yloxyl)-1,2,3,4-tetrahydronaphthalen-2-yl )-5-(trifluoromethyl)benzamide at 10 mg, po; type: ADME, organism-based; conditions: in vivo
[24] = Plasma concentration in mouse xenografted with human A375M cells at 100 mg/kg, po administered as single dose in 10% HPbCD measured 8 hrs post dose by LC/MS/MS; type: ADME, organism-based; parameters: dose 100 mg/kg, route oral
Mus musculus [25] = assay: Inhibition of ERK phosphorylation in human A375M cells xenografted in mouse at 100 mg/kg, po administered as single dose in 10% HPbCD measured 8 hrs post dose by Li-Cor quantitative Western blot analysis relative to control; type: functional

Row | IC50 [1] [nM] | IC50 [2] [nM] | IC50 [3] [nM] | bioavailability [4] [%] | Vdss (Mus musculus [6]) [L/kg] | Compound | further results
1 | 79 | – | – | – | – | CC(C)(N)c1cc(NC(=O)[C@H]2CCc3ccc(Oc4ccnc5c4CCC(=O)N5)cc3C2)cc(C(F)(F)F)c1 | –
2 | 130 | 4.5 | 5 | – | – | NCc1cc(NC(=O)[C@H]2CCc3ccc(Oc4ccnc(NC(=O)C5CC5)c4)cc3C2)cc(C(F)(F)F)c1 | –
3 | 780 | 6 | 6 | – | – | NCc1cc(NC(=O)[C@@H]2CCc3ccc(Oc4ccnc(NC(=O)C5CC5)c4)cc3C2)cc(C(F)(F)F)c1 | –
4 | 1400 | 11 | 20 | – | – | CNC(=O)c1cc(Oc2ccc3c(c2)CC(C(=O)Nc2cc(CN)cc(C(F)(F)F)c2)CC3)ccn1 (stereo unspecified) | –
5 | – | 6 | – | – | – | CC(=O)Nc1cc(Oc2ccc3c(c2)C[C@@H](C(=O)Nc2cc(CN)cc(C(F)(F)F)c2)CC3)ccn1 | –
6 | > 25000 | 10 | 61 | – | – | CNC(=O)c1cc(Oc2ccc(CCC(=O)Nc3ccc(Cl)c(C(F)(F)F)c3)cc2)ccn1 | –
7 | 150 | 6.2 | 8 | 1.9 | 6.4 | NCc1cc(NC(=O)C2CCc3ccc(Oc4ccnc(NC(=O)C5CC5)c4)cc3C2)cc(C(F)(F)F)c1 (stereo unspecified) | AUC(0-t) at 24 h [5]: 0.58 µM·h; CL/F [7]: 6.67 mL/min/kg
8 | 190 | 4.6 | 5 | – | – | CC(C)NCc1cc(NC(=O)C2CCc3ccc(Oc4ccnc(NC(=O)C5CC5)c4)cc3C2)cc(C(F)(F)F)c1 (stereo unspecified) | AUC(0-t) at 24 h [5]: 15.6 µM·h
9 | 1100 | – | 3.2 | – | – | CN(C)Cc1cc(C(=O)N[C@H]2CCc3ccc(Oc4ccnc(NC(=O)C5CC5)c4)cc3C2)cc(C(F)(F)F)c1 | –
10 | – | – | – | 50 | 0.75 | CNCc1cc(C(=O)N[C@@H]2CCc3ccc(Oc4ccnc5c4CCC(=O)N5)cc3C2)cc(C(F)(F)F)c1 | CL (Mus musculus [8]): 12.2 mL/min/kg; AUC(0-t) at 24 h [9]: 12.4 µM·h
11 | 5000 | 16 | 26 | – | – | CNC(=O)c1cc(Oc2ccc3c(c2)CC(C(=O)Nc2ccc(CN)c(C(F)(F)F)c2)CC3)ccn1 (stereo unspecified) | –
12 | – | – | – | 85 | 3.93 | CC(C)(N)c1cc(C(=O)N[C@@H]2CCc3ccc(Oc4ccnc5c4CCC(=O)N5)cc3C2)cc(C(F)(F)F)c1 | CL (Mus musculus [8]): 7.33 mL/min/kg; IC50 [10]: 1400 nM; Activity (Homo sapiens [11]): Active; concentration at 4 h [12]: 23 µM; IC50 [13]: 47 nM; inhibition in vivo at 75 mg/kg (Mus musculus [14]): 87%; AUC(0-t) at 24 h [9]: 35.9 µM·h; inhibition in vivo at 75 mg/kg (Mus musculus [15]): 83%; concentration at 8 h [16]: 27 µM; concentration at 24 h [17]: 3 µM; inhibition in vivo at 75 mg/kg (Mus musculus [18]): 90%
13 | > 25000 | 9 | 47 | – | – | CNC(=O)c1cc(Oc2cccc(CCC(=O)Nc3ccc(Cl)c(C(F)(F)F)c3)c2)ccn1 | –
14 | 130 | 3.3 | 4 | 27 | 6.07 | CN(C)Cc1cc(NC(=O)[C@H]2CCc3ccc(Oc4ccnc(NC(=O)C5CC5)c4)cc3C2)cc(C(F)(F)F)c1 | AUC(0-t) at 24 h [5]: 2.87 µM·h; CL/F [7]: 23.5 mL/min/kg
15 | – | – | – | 100 | 0.75 | CN(C)Cc1cc(C(=O)N[C@@H]2CCc3ccc(Oc4ccnc5c4CCC(=O)N5)cc3C2)cc(C(F)(F)F)c1 | CL (Mus musculus [8]): 3.83 mL/min/kg; concentration at 4 h [19]: 28 µM; IC50 [10]: > 10000 nM; concentration at 24 h [20]: 0.4 µM; IC50 [13]: 1100 nM; Activity (Homo sapiens [21]): Active; AUC(0-t) at 24 h [9]: 98.6 µM·h; inhibition in vivo at 100 mg/kg (Mus musculus [22]): 72%; inhibition in vivo at 100 mg/kg (Mus musculus [23]): 93%; Drug uptake (Plasma): 30%; concentration at 8 h [24]: 29 µM; inhibition in vivo at 100 mg/kg (Mus musculus [25]): 92%
16 | 2900 | 28 | 32 | – | – | CNC(=O)c1cc(Oc2ccc3c(c2)CC(C(=O)Nc2ccc(Cl)c(C(F)(F)F)c2)CC3)ccn1 (racemic) | –
17 | 70 | – | 2.9 | 22 | 2.19 | CN(C)Cc1cc(C(=O)N[C@@H]2CCc3ccc(Oc4ccnc(NC(=O)C5CC5)c4)cc3C2)cc(C(F)(F)F)c1 | CL (Mus musculus [8]): 35.7 mL/min/kg; AUC(0-t) at 24 h [9]: 0.51 µM·h
18 | 110 | – | 3.3 | 20 | 3.87 | CC(C)NCc1cc(NC(=O)[C@H]2CCc3ccc(Oc4ccnc5c4CCC(=O)N5)cc3C2)cc(C(F)(F)F)c1 | CL (Mus musculus [8]): 5.33 mL/min/kg; AUC(0-t) at 24 h [9]: 20.7 µM·h
